The values that follow come from publication PMC9574855 (Journal of Medicinal Chemistry, 2022).

Structures are written as SMILES. Where two headings read alike, the source gives them in different places.

One data set has as its system LOK. The settings on record: 300 nM, KiNativ, Jurkat cell lysate; cited from earlier work.
A further data set concerns ITPK1. The following applies: 300 nM, KiNativ, Jurkat cell lysate; cited from earlier work.
In data set [1] the test system is 24 human lipid kinases and 83 human protein kinases. The settings on record: 300 nM, KiNativ; cited from earlier work.
For data set [2], the system named is His6-SARS-CoV-2 spike protein uptake by HEK293T-ACE2 cells. Kind of data set: Spike uptake assay in HEK293T-ACE2 cells. In kind it is cell-based, human. The settings on record: 1 μM.
Data set [3] relates to His6-SARS-CoV-2 spike protein uptake by Calu-3 cells. Put plainly: Spike uptake assay in Calu-3 cells. In kind it is cell-based. The settings on record: 1 μM.
For data set [4], the system named is His6-SARS-CoV-2 spike protein uptake by Caco-2 cells. Kind of data set: Spike uptake assay in Caco-2 cells. In kind it is cell-based. The following applies: 1 μM.
Data set [5] concerns lentivirus pseudotyped with the SARS-CoV-2 spike glycoprotein. In kind it is cell-based. The settings on record: Calu-3 cells, 1 μM.
The subject of another data set is bald GFP lentivirus. The format is cell-based. The following applies: Calu-3 cells, 1 μM.
Another data set relates to SH-SY5Y cells. Put plainly: Lysosomal staining. The format is cell-based, human. The settings on record: 5 μM, 24 h.
Data set [6] has as its system 403 WT human kinases. The settings on record: 1 μM, published data, apilimod; cited from earlier work.
The target in data set [7] is T1, PIKfyve (Homo sapiens, UniProt Q9Y2I7). Put plainly: biochemical. The format is biochemical.
T1 sequence (Q9Y2I7 whole entry): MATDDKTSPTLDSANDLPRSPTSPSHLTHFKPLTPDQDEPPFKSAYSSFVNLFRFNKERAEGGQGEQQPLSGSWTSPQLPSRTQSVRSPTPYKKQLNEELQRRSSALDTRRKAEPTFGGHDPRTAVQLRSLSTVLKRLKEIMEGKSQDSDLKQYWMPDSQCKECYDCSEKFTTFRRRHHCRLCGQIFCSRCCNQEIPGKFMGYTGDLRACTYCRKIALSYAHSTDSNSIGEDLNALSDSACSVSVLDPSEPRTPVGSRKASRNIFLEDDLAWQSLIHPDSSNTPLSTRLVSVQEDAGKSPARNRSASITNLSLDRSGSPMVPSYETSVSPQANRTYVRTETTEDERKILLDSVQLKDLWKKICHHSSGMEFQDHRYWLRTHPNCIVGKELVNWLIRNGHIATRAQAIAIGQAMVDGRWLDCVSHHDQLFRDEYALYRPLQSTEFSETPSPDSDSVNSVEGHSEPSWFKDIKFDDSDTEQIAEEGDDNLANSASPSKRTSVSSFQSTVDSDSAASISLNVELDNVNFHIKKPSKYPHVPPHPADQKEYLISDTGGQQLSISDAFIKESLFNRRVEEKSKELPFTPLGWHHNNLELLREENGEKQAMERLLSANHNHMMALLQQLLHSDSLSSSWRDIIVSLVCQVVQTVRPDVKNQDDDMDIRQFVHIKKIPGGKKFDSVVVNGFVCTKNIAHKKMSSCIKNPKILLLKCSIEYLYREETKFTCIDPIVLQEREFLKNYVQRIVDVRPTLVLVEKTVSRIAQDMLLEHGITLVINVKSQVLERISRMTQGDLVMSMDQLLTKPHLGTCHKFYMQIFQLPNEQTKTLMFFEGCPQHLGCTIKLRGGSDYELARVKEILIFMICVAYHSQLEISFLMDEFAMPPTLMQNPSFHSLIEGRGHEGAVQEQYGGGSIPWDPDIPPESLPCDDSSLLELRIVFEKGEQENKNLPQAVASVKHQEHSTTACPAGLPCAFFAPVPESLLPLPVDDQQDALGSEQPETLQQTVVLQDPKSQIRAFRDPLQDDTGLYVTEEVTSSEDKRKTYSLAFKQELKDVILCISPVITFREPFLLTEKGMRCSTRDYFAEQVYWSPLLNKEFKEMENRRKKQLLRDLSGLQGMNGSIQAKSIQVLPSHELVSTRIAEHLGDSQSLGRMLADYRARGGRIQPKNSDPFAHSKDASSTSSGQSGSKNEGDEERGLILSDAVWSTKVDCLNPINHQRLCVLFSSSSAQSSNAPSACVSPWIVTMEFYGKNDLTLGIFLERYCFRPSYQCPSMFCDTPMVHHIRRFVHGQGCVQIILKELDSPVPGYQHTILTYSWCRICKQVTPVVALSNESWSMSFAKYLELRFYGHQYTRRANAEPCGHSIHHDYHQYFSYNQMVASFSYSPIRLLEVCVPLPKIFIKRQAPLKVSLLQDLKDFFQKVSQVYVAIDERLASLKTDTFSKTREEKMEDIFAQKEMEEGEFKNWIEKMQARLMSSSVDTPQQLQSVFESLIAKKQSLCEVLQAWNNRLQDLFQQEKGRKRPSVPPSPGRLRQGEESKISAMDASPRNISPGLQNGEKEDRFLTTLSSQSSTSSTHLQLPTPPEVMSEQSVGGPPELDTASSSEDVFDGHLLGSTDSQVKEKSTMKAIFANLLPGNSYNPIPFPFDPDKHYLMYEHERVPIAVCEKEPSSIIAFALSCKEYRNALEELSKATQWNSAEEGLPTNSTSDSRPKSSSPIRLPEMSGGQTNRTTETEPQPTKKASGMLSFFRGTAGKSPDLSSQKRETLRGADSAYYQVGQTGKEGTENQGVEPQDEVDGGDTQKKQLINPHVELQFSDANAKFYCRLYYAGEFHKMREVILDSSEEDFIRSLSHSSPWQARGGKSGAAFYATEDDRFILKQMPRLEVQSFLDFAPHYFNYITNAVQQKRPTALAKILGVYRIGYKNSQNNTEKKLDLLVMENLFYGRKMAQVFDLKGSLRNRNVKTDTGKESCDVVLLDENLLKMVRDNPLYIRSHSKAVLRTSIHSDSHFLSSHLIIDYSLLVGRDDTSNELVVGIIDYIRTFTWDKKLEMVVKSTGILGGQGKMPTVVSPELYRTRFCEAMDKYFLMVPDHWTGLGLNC
In data set [8] the test system is 403 WT human kinases. Kind of data set: DiscoverX scanMAX kinome-wide selectivity at 1 μM. The format is binding.
The next data set concerns MHV-nLuc virus. Kind of data set: microbe, parasite or virus in culture. In kind it is cell-based, mouse hepatitis virus (MHV). The following applies: for inhibition of viral replication (MHV-nLuc), in words: DBT cells.
For the next data set, the system named is DBT cells. Put plainly: LDH cell viability assay in DBT cells. In kind it is cell-based, mouse. The settings on record: up to 10 μM.
Data set [9] concerns small panel of understudied kinases. Put plainly: Eurofins enzymatic profiling in targeted kinase panel. The following applies: 1 μM, Table S2 panel. In kind it is biochemical, human.
In another data set the test system is SARS-CoV-2-nLuc. Put plainly: microbe, parasite or virus in culture. The settings on record: A549-ACE2 cells. In kind it is cell-based.
A further data set concerns A549-ACE2 cells. The settings on record: LDH assay.
Data set [10] concerns the target T1, PIKfyve. Put plainly: cell-based. The settings on record: PIKfyve NanoBRET IC50, bound stated with SGC probe criteria.
The target in the next data set is T2, MYLK4 (Homo sapiens, UniProt Q86YV6).
T2 sequence (Q86YV6 1-388): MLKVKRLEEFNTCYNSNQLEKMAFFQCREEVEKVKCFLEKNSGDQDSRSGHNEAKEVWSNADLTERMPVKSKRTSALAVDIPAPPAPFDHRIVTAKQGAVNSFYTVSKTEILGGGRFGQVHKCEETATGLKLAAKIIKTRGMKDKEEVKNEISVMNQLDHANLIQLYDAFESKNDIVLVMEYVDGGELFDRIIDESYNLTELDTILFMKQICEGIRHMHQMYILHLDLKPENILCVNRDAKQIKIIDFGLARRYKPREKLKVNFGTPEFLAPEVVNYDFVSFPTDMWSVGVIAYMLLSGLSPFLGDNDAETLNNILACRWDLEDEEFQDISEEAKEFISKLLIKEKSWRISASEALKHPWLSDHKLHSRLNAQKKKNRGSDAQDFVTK
Kind of data set: NanoBRET assay. The format is cell-based. (BRET reads energy transfer from a luciferase to a nearby fluorophore.)

Regarding `Cc1cccc(/C=N/Nc2cc(N3CCOCC3)n3nc(-c4ccncc4)cc3n2)c1` [APY0201, 2-[7-(4-morpholinyl)-2-(4-pyridinyl)pyrazolo[1,5-a]pyrimidin-5-yl]hydrazone, 3-methyl-benzaldehyde], the “inhibition of LOK” value in the data set on LOK is above 50%. In the data set on ITPK1, the “inhibition of ITPK1” value is on record as above 50%. In addition, the Gini coefficient in [1] is on record as 0.753.

Take `Cc1cccc(/C=N/Nc2cc(N3CCOCC3)nc(OCCc3ccccn3)n2)c1` [Apilimod, 4-(6-(2-(3-Methylbenzylidene)hydrazinyl)-2-(2-(pyridin-2-yl)ethoxy)pyrimidin-4-yl)morpholine, reference compound]: the “His6-SARS-CoV-2 spike protein uptake” value was “significantly reduced spike protein uptake” in [2], “efficiently reduced spike protein uptake” in [3] and “efficiently reduced spike protein uptake” in [4]. In data set [5], the “entry of lentivirus pseudotyped with SARS-CoV-2 spike glycoprotein” value (“entry of lentivirus pseudotyped” for short) is “inhibition of pseudoviral entry”. Further, in the data set with bald GFP lentivirus, the “entry of bald lentivirus” value was “entry of bald lentivirus was not impacted”. Further, the “vacuoles in LysoTracker-stained cells” value in the data set with SH-SY5Y cells is “vacuoles are present”. Moreover, the “# scanMAX kinases with PoC < 10” value with 403 WT human kinases [6] is on record as 1.

Take `Nc1ncc2c(n1)-c1c([nH]c3ccc(-c4ccc(F)cc4)cc13)CCC2` [compound 8, 11-(4-Fluorophenyl)-5,6,7,8-tetrahydropyrimido[4′,5′:3,4]cyclohepta[1,2-b]indol-2-amine]: the “selectivity over all other kinases evaluated” value at PIKfyve [7] (versus PIKfyve enzymatic and NanoBRET IC50 values) is recorded as above 415 fold. Moreover, the “# scanMAX kinases with PoC < 10” value in the data set with 403 WT human kinases [8] stood at 2. In addition, in the data set on MHV-nLuc virus, the “inhibition of viral replication (MHV-nLuc), in words” value is “inhibited viral replication”. Moreover, the “effect on cell viability in DBT cells” value in the data set with DBT cells is “no significant effect on cell viability up to 10 μM”. Besides, in data set [2], the “His6-SARS-CoV-2 spike protein uptake” value is “significantly reduced spike protein uptake”. For the same compound, in data set [5], the “entry of lentivirus pseudotyped” value is listed as “inhibition of pseudoviral entry”. Further, the “entry of bald lentivirus” value in the data set with bald GFP lentivirus is on record as “entry of bald lentivirus was not impacted”. For the same compound, in the data set on SH-SY5Y cells, the “vacuoles in LysoTracker-stained cells” value is given as “vacuoles are present”. Further, the “highest inhibition of any kinase in the targeted enzymatic panel” value in [9] is at most 55%.

As for `Nc1ncc2c(n1)-c1c([nH]c3ccc(C4CC4)cc13)CCCC2` [compound 30, 12-Cyclopropyl-6,7,8,9-tetrahydro-5H-pyrimido[4′,5′:3,4]cycloocta[1,2-b]indol-2-amine], the “# scanMAX kinases with PoC < 10” value in the data set with 403 WT human kinases [8] is on record as 1. Moreover, in the data set on MHV-nLuc virus, the “inhibition of viral replication (MHV-nLuc), in words” value is “failed to inhibit viral replication”. Further, in the data set on MHV-nLuc virus (Murine coronavirus, read-out: MHV replication pIC50 (converted)), the IC50 was 10000 nM. The “inhibition of SARS-CoV-2 replication, in words” value with SARS-CoV-2-nLuc is given as “did not inhibit SARS-CoV-2 replication”. For the same compound, in the data set on DBT cells, the “effect on cell viability in DBT cells” value is given as “nontoxic up to 10 μM”. In addition, the “His6-SARS-CoV-2 spike protein uptake” value in [2] is listed as “no effect on spike protein uptake”. In addition, in [5], the “entry of lentivirus pseudotyped” value is “did not inhibit pseudoviral entry”. In addition, the “entry of bald lentivirus” value in the data set on bald GFP lentivirus is on record as “entry of bald lentivirus was not impacted”. For the same compound, the “toxicity to A549-ACE2 cells” value in the data set with A549-ACE2 cells is recorded as “did not inhibit SARS-CoV-2 replication or elicit any toxicity”.

For `CN(C)CC#Cc1ccc2[nH]c3c(c2c1)-c1nc(N)ncc1CCC3` [compound 17, 11-(3-(Dimethylamino)prop-1-yn-1-yl)-5,6,7,8-tetrahydropyrimido[4′,5′:3,4]cyclohepta[1,2-b]indol-2-amine], the IC50 against PIKfyve [7] is below 100 nM; against PIKfyve [10], below 1000 nM; at MYLK4, 265 nM. In addition, in the data set with DBT cells, the “effect on cell viability in DBT cells” value was “no significant effect on cell viability up to 10 μM”. For the same compound, the figures for the “His6-SARS-CoV-2 spike protein uptake” value in data set [2], in data set [3] and in data set [4] were “significantly reduced spike protein uptake”, “efficiently reduced spike protein uptake” and “efficiently reduced spike protein uptake”, respectively. Also, the “entry of lentivirus pseudotyped” value in data set [5] is “inhibition of pseudoviral entry”. For the same compound, the “entry of bald lentivirus” value with bald GFP lentivirus is given as “entry of bald lentivirus was not impacted”. Besides, the “vacuoles in LysoTracker-stained cells” value in the data set on SH-SY5Y cells is recorded as “vacuoles are present”.
